# Assay results as given in paper PMC9684503 (Communications Biology, 2022).
# Counter-ions that a name gives are not always drawn. Like-named read-outs stand apart in the source and are kept apart here.
# Molecular target: T1, rat VMAT2-His (Rattus norvegicus, UniProt Q01827)
# T1 construct: The ORF of rat VMAT2 was subcloned into a pFastBac vector; His; made in house; host or cells: Sf9 insect cells (baculovirus)
# Experiment: Differential scanning fluorimetry (DSF) with CPM dye: change of melting temperature of purified VMAT2
# Type: binding
# Conditions: for ΔTm at 12 µM / ΔTm at 37 µM / ΔTm at 10 µM / ΔTm at 30 µM / ΔTm at 90 µM / ΔTm at 270 µM / ΔTm at 11 µM / ΔTm at 33 µM: read-out: ΔTm
# Procedure: To screen purified VMAT2 by DSF we expressed the rat VMAT2 protein, as VMAT2-His, in SF9 insect cells using the baculovirus expression system. The transporter was solubilized and purified in n-Dodecyl-β-D-maltoside (DDM)/cholesterol hemisuccinate (CHS) micelles by immobilized metal affinity chromatography (IMAC) and size exclusion chromatography (SEC). […] Screening was performed using DSF and the thiol-reactive dye 7-diethylamino-3-(4-maleimidophenyl)-4-methylcoumarin (CPM), an approach that monitors changes to the protein melting temperature (Tm) upon compound binding. Using CPM or other dyes, DSF-based assays have successfully been used in molecular-based screenings[34],[35]. […] DSF screening was performed in 384 well plates using the thiol-sensing dye 7-diethylamino-3-(4-maleimidophenyl)-4-methylcoumarin (CPM) (Merck). […] Protein melting curves were determined using a LightCycler 480 ii RT-PCR system (Roche), with a temperature ramp increasing from 25 to 95 °C at a rate of 2 °C/min. Data analysis was performed using an in-house software that automatically determines the protein midpoint melting temperature (Tm) based on the second derivative of the melting curves or using the HTSDSF explorer as described in ref. [58]. […] 6 μl of this mix was dispensed to each well of 384 well plates using a Multidrop™ Combi Reagent Dispenser (Thermo Scientific). […] All initial hits were then subjected to an initial validation in triplicates with a compound concentration of 200 μM and a ΔTm > 5× the standard deviation (SD) cut off. […] Processing of the data from the primary screening and the concentration-dependent validation was performed as reported.
# [1] = Table S2 dose response, compound 10 µM
# [2] = Table S2 dose response, compound 30 µM
# [3] = Table S2 dose response, compound 90 µM
# [4] = Table S1, primary hits, average change in melting temperature vs controls, triplicates
# [5] = Table S2 dose response, compound 0,12 µM
# [6] = Table S2 dose response, compound 0,37 µM
# [7] = Table S2 dose response, compound 270 µM
# [8] = Table S2 dose response, compound 1,11 µM
# [9] = Table S2 dose response, compound 3,33 µM
# T1 sequence (Q01827 whole entry): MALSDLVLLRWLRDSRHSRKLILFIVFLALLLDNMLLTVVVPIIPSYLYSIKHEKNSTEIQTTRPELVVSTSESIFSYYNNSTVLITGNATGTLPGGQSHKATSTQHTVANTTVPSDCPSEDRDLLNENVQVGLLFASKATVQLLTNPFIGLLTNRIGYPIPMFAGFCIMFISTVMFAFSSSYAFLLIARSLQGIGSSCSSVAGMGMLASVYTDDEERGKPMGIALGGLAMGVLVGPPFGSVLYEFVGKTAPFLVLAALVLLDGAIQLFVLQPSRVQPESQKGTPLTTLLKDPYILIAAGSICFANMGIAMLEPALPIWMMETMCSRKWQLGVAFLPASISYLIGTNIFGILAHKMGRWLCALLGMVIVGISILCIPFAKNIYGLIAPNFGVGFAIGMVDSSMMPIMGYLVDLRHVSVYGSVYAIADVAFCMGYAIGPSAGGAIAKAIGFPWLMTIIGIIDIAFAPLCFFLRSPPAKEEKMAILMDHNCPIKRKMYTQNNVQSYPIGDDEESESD
Compound,ΔTm [4],ΔTm at 12 µM [5],ΔTm at 37 µM [6],ΔTm at 10 µM [1],ΔTm at 30 µM [2],ΔTm at 90 µM [3],ΔTm at 270 µM [7],ΔTm at 11 µM [8],ΔTm at 33 µM [9],further results
CCCCCCC[N+](CC)(CC)CCCCc1ccc(Cl)cc1.Cc1ccc(S(=O)(=O)[O-])cc1 [Clofilium tosylate],,,,,,,,,,"ΔTm (270 µM): -2,26 oC; ΔTm [1]: -0,06 oC; ΔTm [2]: -0,15 oC; ΔTm [3]: -0,36 oC"
Fc1ccc(C(OCCN2CCN(CCCc3ccccc3)CC2)c2ccc(F)cc2)cc1 [GBR 12909 dihydrochloride],"-17,11 ± 0,01 oC",-0.02 °C,-0.01 °C,-1.07 °C,-1.67 °C,-2.3 °C,-5.4 °C,0.05 °C,-0.34 °C,
CN1CCC(=C2c3ccccc3Sc3ccccc32)CC1 [Pimethixene maleate],,,,0.15 °C,-0.18 °C,-0.14 °C,-1.59 °C,,,
CN[C@@H]1C[C@@H](c2ccc(Cl)c(Cl)c2)c2ccccc21 [Indatraline hydrochloride],,,,-0.37 °C,-0.63 °C,-1.01 °C,,,,ΔTm at 11 µM: -0.28 °C; ΔTm at 12 µM: 0.24 °C; ΔTm at 33 µM: -0.41 °C; ΔTm at 37 µM: 0.04 °C; ΔTm at 270 µM: -2.11 °C
C#CCN(C)[C@H](C)Cc1ccccc1 [Selegiline hydrochloride],,,,0.3 °C,0.19 °C,0.28 °C,,,,ΔTm at 11 µM: 0.31 °C; ΔTm at 12 µM: 0.33 °C; ΔTm at 33 µM: 0.32 °C; ΔTm at 37 µM: 0.38 °C; ΔTm at 270 µM: 0.36 °C
C=CCc1ccccc1OCC(O)CNC(C)C (stereo not shown) [Alprenolol hydrochloride],"2,30 ± 0,05 oC",-0.11 °C,-0.04 °C,0.14 °C,0.73 °C,0.4 °C,1.21 °C,0.04 °C,0.02 °C,
CCCc1nn(C)c2c(=O)[nH]c(-c3cc(S(=O)(=O)N4CCN(C)CC4)ccc3OCC)nc12 [Sildenafil],"1,10 ± 0,14 oC",0.43 °C,0.04 °C,0.11 °C,0.1 °C,0.39 °C,1.04 °C,0.04 °C,0.09 °C,
O=C(c1ccc(F)cc1)C1CCN(CCn2c(=O)[nH]c3ccccc3c2=O)CC1 [Ketanserin tartrate hydrate],"3,12 ± 0,24 oC",,,1.16 °C,1.17 °C,0.95 °C,2.18 °C,,,
Cc1cccc(C)c1NC(=O)CN1CCN(CCCC(c2ccc(F)cc2)c2ccc(F)cc2)CC1 [Lidoflazine],"1,35 ± 0,18 oC",0.23 °C,0.05 °C,0.23 °C,0.21 °C,0.33 °C,1.14 °C,0.12 °C,0.16 °C,
COC(=O)[C@H]1[C@H]2C[C@@H]3c4[nH]c5cc(OC)ccc5c4CCN3C[C@H]2C[C@@H](OC(=O)c2cc(OC)c(OC)c(OC)c2)[C@@H]1OC [Reserpine],,,,,,,,,,ΔTm at 10 µM: 13.5 °C; ΔTm at 11 µM: 13.6 °C; ΔTm at 12 µM: 13.7 °C; ΔTm at 30 µM: 13.9 °C; ΔTm at 33 µM: 13.6 °C; ΔTm at 37 µM: 13.7 °C; ΔTm at 90 µM: 14 °C; ΔTm at 270 µM: 13.7 °C
Clc1ccc(Cn2c(CN3CCCC3)nc3ccccc32)cc1 [Clemizole hydrochloride],"-1,46 ± 0,10 oC",,,0.33 °C,0.57 °C,0.31 °C,-0.69 °C,,,
CC(C)(C)c1ccc(C(O)CCCN2CCC(C(O)(c3ccccc3)c3ccccc3)CC2)cc1 (stereo not shown) [Terfenadine],"-13,22 ± 0,13 oC",,,0.21 °C,0.24 °C,-0.01 °C,-0.6 °C,,,
CC(NCCC(c1ccccc1)c1ccccc1)c1ccccc1 (stereo not shown) [Fendiline hydrochloride],,,,-0.22 °C,-0.24 °C,-1.16 °C,-3.27 °C,,,
CN1CCCC(n2nc(Cc3ccc(Cl)cc3)c3ccccc3c2=O)CC1 (stereo not shown) [Azelastine HCl],"0,85 ± 0,24 oC",,,-0.6 °C,0.35 °C,0.23 °C,0.55 °C,,,
CN1CCN(CCCN2c3ccccc3Sc3ccc(C(F)(F)F)cc32)CC1 [Trifluoperazine dihydrochloride],,,,,,,,,,"ΔTm: -6,15 ± 0, 08 oC; ΔTm at 10 µM: -0.69 °C; ΔTm at 30 µM: -0.28 °C; ΔTm at 90 µM: -0.23 °C; ΔTm at 270 µM: -1.05 °C"
CC(C)COCC(CN(Cc1ccccc1)c1ccccc1)N1CCCC1 (stereo not shown) [Bepridil hydrochloride],,-0.78 °C,-0.68 °C,-1.08 °C,-1.2 °C,-1.63 °C,-3.8 °C,-0.75 °C,-0.93 °C,
C[C@H](CCC(=O)O)[C@H]1CC[C@H]2[C@@H]3[C@H](O)C[C@@H]4C[C@H](O)CC[C@]4(C)[C@H]3CC[C@]12C [Chenodiol],"1,98 ± 0,15 oC",-0.11 °C,-0.01 °C,0.64 °C,0.35 °C,0.57 °C,2.24 °C,0.17 °C,0.19 °C,
CN(C)CCCN1c2ccccc2Sc2ccc(C(F)(F)F)cc21 [Triflupromazine hydrochloride],,,,,,,,,,"ΔTm: -4,15 ± 0, 03 oC; ΔTm at 10 µM: -0.1 °C; ΔTm at 30 µM: -0.1 °C; ΔTm at 90 µM: -0.84 °C; ΔTm at 270 µM: -2.21 °C"
CC(C)(C)NC(=O)[C@@H]1C[C@@H]2CCCC[C@@H]2CN1C[C@@H](O)[C@H](Cc1ccccc1)NC(=O)[C@H](CC(N)=O)NC(=O)c1ccc2ccccc2n1 [Saquinavir mesylate],,-0.17 °C,-0.28 °C,-0.91 °C,-0.7 °C,-0.55 °C,-1.64 °C,-0.49 °C,-0.65 °C,
Cl.Cl.OCCN1CCN(CC/C=C2/c3ccccc3Sc3ccc(Cl)cc32)CC1 [Zuclopenthixol dihydrochloride],,,,,,,,,,"ΔTm (11 µM): -0,58 oC; ΔTm (12 µM): -0,36 oC; ΔTm (33 µM): 0,03 oC; ΔTm (37 µM): -0,44 oC; ΔTm (270 µM): -1,51 oC; ΔTm [1]: -0,07 oC; ΔTm [2]: -1,80 oC; ΔTm [3]: -0,79 oC"
CC(C(O)c1ccc(O)cc1)N1CCC(Cc2ccccc2)CC1.CC(C(O)c1ccc(O)cc1)N1CCC(Cc2ccccc2)CC1.O=C(O)C(O)C(O)C(=O)O (stereo not shown) [Ifenprodil tartrate],"1,23 ± 0,40 oC",,,,,,,,,"ΔTm (11 µM): -0,20 oC; ΔTm (12 µM): 0,30 oC; ΔTm (33 µM): 0,14 oC; ΔTm (37 µM): 0,32 oC; ΔTm (270 µM): 0,41 oC; ΔTm [1]: 0,09 oC; ΔTm [2]: 0,06 oC; ΔTm [3]: -0,04 oC"
CCSc1ccc2c(c1)N(CCCN1CCN(C)CC1)c1ccccc1S2.O=C(O)CC(O)C(=O)O.O=C(O)CC(O)C(=O)O [Thiethylperazine dimalate],,,,,,,,,,"ΔTm (11 µM): -0,77 oC; ΔTm (12 µM): -0,61 oC; ΔTm (33 µM): -0,78 oC; ΔTm (37 µM): -0,58 oC; ΔTm (270 µM): -3,69 oC; ΔTm [1]: -1,01 oC; ΔTm [2]: -1,34 oC; ΔTm [3]: -2,15 oC"
C[C@H](CCC(=O)O)[C@H]1CC[C@H]2[C@@H]3C(=O)C[C@@H]4CC(=O)CC[C@]4(C)[C@H]3CC(=O)[C@]12C [Dehydrocholic acid],"1,51 ± 0,28 oC",,,0.39 °C,0.66 °C,0.53 °C,1.43 °C,,,
